Reference: patent US20230131025A1, “QUINOLYL PHOSPHINE OXIDE COMPOUND, AND COMPOSITION AND APPLICATION THEREOF” (Betta Pharmaceuticals Co., Ltd., priority 2020, published 2023)

What was measured:
EGFR WT = EGFR WT (Homo sapiens, UniProt P00533); experiment: Kinase inhibition assay (mobility shift); type: biochemical
Outline: (§1)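 Caliper mobility-shift read of substrate conversion after kinase-compound preincubation 10 min at room temperature, then ATP/substrate addition and reaction at room temperature. Ten-point 3-fold dilutions from 3,000 or 100 nM top; IC50 from variable-slope four-parameter fit of percent inhibition.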

EGFR Δ19del/T790M/C797S = EGFR Δ19del/T790M/C797S (Homo sapiens, UniProt P00533, T790M/C797S, form not given); experiment: Kinase inhibition assay (mobility shift); type: biochemical
Outline: as §1

IGF1R = IGF1R (Homo sapiens, UniProt P08069); experiment: Kinase inhibition assay (mobility shift); type: biochemical
Outline: as §1

[1] = tested on: Ba/F3-Δ19del/T790M/C797S-derived xenograft (CDX); experiment: In vivo efficacy experiment, xenograft tumor growth; set-up: species or system BALB/c nude mice
Procedure: In vivo efficacy experiments were performed on Ba/F3-Δ19del/T790M/C797S-derived xenograft (CDX) BALB/c nude mice. […] They were fed in an SPF environment, with each cage individually ventilated (6 mice per cage). […] Each mouse was subcutaneously inoculated with 0.1 mL cells (5×10^6 cells, the volume ratio of matrigel to cell was 1:1) on the right upper limb. When the tumor volume was about 150 mm^3, the grouped mice were separately administered with compound J-022 (10 mg/kg, 100 mg/kg, 150 mg/kg) orally QD for 15 consecutive days. Tumor diameters were measured with vernier calipers twice a week. The volume of tumor is calculated as: V=0.5a×b^2, wherein a and b represent the long diameter and short diameter of the tumor, respectively. The tumor growth inhibition rate TGI (%) was calculated to evaluate the tumor inhibitory effect of the compounds. TGI (%) was calculated with the following formula: TGI (%)=(1−(the average tumor volume of the compound treatment group at the end of the administration−the average tumor volume of the compound treatment group at the beginning of the administration)/(the average tumor volume of the solvent control group at the end of treatment−the average tumor volume of the solvent control group at the beginning of treatment))×100%.

IGF1R, sequence (P08069 31-1367, species assumed): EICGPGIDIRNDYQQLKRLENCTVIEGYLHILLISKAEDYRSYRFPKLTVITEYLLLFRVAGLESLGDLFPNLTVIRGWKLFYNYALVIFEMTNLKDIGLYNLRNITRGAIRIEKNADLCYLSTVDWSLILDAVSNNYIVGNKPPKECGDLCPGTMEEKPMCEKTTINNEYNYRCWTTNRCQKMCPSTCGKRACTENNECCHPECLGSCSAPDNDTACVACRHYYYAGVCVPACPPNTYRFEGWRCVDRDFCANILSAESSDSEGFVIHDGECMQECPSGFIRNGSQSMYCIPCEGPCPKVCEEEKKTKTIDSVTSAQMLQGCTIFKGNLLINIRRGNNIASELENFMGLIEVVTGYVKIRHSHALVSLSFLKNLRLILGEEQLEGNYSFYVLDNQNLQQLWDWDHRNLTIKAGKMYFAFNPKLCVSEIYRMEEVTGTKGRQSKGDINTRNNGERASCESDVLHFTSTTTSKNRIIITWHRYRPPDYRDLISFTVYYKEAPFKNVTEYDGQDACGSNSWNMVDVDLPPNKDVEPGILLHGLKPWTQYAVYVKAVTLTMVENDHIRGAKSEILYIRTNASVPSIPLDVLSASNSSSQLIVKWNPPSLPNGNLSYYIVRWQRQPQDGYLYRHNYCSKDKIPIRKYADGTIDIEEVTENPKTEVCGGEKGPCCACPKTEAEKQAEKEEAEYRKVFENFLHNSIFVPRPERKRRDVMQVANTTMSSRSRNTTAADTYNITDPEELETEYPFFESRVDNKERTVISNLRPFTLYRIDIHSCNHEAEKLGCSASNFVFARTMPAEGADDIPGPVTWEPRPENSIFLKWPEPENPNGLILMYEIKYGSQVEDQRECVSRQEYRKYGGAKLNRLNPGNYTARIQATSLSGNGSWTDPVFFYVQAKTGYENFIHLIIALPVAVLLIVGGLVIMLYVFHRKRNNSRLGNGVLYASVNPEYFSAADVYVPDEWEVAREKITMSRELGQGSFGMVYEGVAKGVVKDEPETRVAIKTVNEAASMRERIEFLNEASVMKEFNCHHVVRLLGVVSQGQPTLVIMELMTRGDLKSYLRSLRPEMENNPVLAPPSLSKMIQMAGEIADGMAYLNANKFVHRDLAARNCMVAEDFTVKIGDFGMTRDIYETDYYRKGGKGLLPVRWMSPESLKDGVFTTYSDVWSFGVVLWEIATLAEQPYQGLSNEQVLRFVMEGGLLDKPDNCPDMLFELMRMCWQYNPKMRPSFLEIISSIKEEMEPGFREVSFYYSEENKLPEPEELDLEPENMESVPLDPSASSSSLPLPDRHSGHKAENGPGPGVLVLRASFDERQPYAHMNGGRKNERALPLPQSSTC
EGFR WT, sequence (P00533 25-1210): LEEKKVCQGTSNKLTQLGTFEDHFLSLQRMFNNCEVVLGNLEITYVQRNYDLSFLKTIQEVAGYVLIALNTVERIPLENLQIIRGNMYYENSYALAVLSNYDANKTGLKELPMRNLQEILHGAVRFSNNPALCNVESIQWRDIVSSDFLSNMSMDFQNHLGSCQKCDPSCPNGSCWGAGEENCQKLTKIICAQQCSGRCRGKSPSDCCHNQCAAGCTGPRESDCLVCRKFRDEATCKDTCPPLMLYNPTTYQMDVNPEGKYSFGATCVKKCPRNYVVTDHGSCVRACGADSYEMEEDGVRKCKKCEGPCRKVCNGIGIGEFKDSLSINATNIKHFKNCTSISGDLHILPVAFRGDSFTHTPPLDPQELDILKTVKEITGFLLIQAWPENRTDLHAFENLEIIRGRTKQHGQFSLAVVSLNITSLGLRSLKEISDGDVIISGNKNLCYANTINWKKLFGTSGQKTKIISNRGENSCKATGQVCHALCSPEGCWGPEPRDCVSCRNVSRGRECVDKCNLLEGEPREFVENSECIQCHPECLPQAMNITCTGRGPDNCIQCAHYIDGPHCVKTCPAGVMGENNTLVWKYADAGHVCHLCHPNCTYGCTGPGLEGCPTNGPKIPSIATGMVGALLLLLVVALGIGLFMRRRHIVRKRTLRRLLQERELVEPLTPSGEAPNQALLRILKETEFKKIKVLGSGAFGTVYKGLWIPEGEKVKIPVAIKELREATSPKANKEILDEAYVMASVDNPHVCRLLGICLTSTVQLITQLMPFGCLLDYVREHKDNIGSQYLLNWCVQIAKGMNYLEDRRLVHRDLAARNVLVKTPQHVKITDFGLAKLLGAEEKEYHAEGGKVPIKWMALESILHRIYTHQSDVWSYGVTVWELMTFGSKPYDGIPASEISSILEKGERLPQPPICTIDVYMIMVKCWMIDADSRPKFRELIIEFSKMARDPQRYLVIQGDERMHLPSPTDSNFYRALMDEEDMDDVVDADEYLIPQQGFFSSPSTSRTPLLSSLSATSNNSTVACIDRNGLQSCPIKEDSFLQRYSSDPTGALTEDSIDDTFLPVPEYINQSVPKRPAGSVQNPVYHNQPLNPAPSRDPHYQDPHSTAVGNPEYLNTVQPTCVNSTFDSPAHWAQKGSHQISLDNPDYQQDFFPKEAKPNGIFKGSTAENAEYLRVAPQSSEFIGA
EGFR Δ19del/T790M/C797S, sequence (P00533 with tags, fused parts or gaps DEL746-750/T790M/C797S, form open): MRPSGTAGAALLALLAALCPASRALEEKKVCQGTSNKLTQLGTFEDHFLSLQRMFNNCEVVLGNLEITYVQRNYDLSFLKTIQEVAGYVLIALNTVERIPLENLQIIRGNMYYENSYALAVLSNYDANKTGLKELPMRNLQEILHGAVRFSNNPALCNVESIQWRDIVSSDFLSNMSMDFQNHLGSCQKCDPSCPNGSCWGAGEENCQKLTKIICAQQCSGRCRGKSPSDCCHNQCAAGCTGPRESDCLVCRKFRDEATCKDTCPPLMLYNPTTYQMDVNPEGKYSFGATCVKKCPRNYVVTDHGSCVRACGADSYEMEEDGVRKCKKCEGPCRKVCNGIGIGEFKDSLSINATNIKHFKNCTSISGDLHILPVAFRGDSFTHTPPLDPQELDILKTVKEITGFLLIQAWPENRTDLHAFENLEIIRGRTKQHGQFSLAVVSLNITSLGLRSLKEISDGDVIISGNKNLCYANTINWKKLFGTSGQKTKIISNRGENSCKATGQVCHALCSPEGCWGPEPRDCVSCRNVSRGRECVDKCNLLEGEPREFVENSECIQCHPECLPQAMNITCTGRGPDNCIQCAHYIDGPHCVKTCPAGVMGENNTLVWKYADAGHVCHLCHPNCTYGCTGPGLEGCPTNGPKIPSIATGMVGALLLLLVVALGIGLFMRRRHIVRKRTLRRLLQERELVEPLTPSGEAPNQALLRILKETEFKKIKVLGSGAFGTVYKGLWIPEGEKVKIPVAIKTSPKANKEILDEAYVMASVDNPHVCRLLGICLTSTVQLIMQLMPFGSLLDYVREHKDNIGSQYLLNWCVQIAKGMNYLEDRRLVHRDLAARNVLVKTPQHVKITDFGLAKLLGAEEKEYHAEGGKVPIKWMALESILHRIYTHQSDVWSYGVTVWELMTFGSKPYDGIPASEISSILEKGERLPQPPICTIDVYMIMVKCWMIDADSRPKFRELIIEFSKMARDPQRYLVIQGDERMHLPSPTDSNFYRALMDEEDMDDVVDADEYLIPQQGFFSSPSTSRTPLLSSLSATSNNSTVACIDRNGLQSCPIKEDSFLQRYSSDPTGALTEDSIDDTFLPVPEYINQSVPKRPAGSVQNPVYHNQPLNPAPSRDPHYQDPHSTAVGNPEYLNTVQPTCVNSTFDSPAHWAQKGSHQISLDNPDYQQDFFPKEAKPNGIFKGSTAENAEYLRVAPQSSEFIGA

SMILES: COc1cc(N2CCC(N3CCN(C)CC3)CC2)c(C)cc1Nc1ncc(Br)c(Nc2ccc3nc(C4CC4)ccc3c2P(C)(C)=O)n1 [Compound J-022, (6-((5-Bromo-2-((2-methoxy-5-methyl-4-(4-(4-methylpiperazin-1-yl)piperidin-1-yl)phenyl)amino)pyrimidin-4-yl)amino)-2-cyclopropylquinolin-5-yl)dimethylphosphine oxide]
- IC50 (EGFR WT): 0.0202 µM
- IC50 (EGFR Δ19del/T790M/C797S): 0.0003 µM
- IC50 (IGF1R): 0.195 µM
- Tumor volume ([1]; 10 mg/kg/day oral QD, 0 day): 152 mm^3
- 15 day TGI % ([1]; 10 mg/kg/day oral QD, 15 consecutive days): 53%
- Tumor volume ([1]; 10 mg/kg/day oral QD, 3 day): 183 mm^3
- Tumor volume ([1]; 10 mg/kg/day oral QD, 7 day): 321 mm^3
- Tumor volume ([1]; 10 mg/kg/day oral QD, 10 day): 747 mm^3
- Tumor volume ([1]; 10 mg/kg/day oral QD, 15 day): 1650 mm^3
- Tumor regression ([1]; 100 mg/kg/day or 150 mg/kg/day, 15 consecutive days): tumor completely regressed
- Tumor volume ([1]; 100 mg/kg/day oral QD, 0 day): 151 mm^3
- 15 day TGI % ([1]; 100 mg/kg/day oral QD, 15 consecutive days): 105%
- Tumor volume ([1]; 100 mg/kg/day oral QD, 3 day): 99 mm^3
- Tumor volume ([1]; 100 mg/kg/day oral QD, 7 day): 59 mm^3
- Tumor volume ([1]; 100 mg/kg/day oral QD, 10 day): 0 mm^3
- Tumor volume ([1]; 100 mg/kg/day oral QD, 15 day): 0 mm^3
- Tumor volume ([1]; 150 mg/kg/day oral QD, 0 day): 152 mm^3
- 15 day TGI % ([1]; 150 mg/kg/day oral QD, 15 consecutive days): 105%
- Tumor volume ([1]; 150 mg/kg/day oral QD, 3 day): 102 mm^3
- Tumor volume ([1]; 150 mg/kg/day oral QD, 7 day): 4 mm^3
- Tumor volume ([1]; 150 mg/kg/day oral QD, 10 day): 0 mm^3
- Tumor volume ([1]; 150 mg/kg/day oral QD, 15 day): 0 mm^3
- half effective dose ([1]; dose with TGI 53%): 10 mg/kg/day
